The text below walks through data of PMC3433420 (PLoS ONE, 2012).

The structures appear in SMILES notation. Residues, ends and D or L forms follow the SMILES beside them.

Experiment in all cases: In-house protein microarrays (with or without 5 mM DTT), protein named per line
Format in all cases: binding

The target in assay [1] is T1, SH2 and PTB domains (Homo sapiens, UniProt O60880).
T1 construct: thioredoxin; made in house; host or cells: BL21(DE3)pLysS E. coli
T1 sequence (O60880 1-128): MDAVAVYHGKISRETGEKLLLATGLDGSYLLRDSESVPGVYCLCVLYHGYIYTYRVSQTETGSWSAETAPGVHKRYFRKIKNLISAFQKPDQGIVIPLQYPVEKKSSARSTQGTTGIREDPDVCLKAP
As to conditions: protein SH2D1A. On the procedure:
(§1) 300 pL of purified recombinant proteins and a thioredoxin tag control were spotted at a concentration of ∼40 µM in duplicate onto aldehyde-coated microscope slides (Erie Scientific Company, Portsmouth, NH) using a Nano-Plotter (NP) 2.1/E noncontact microarrayer (GeSiM, Munich, Germany). 16 identical microarrays per slide were printed in a 2×8 (column by row) format with distances of 9 mm between individual arrays; each array consisted of a 14×14 configuration of spots 400 µm apart. Following printing at a constant humidity level of 50%, slides were desiccated overnight and stored at −80°C. For peptide probing, array slides were transferred to 96-well microplates (TeleChem International, Inc., Sunnyvale, CA) and sandwiched with silicone gaskets. Prior to peptide addition, aldehyde sites were quenched with buffer B (20 mM HEPES, 100 mM KCl, 0.1% Tween-20, 5 mM DTT, pH 7.8) containing 1% bovine serum albumin (BSA) (w/v) for one hour at room temperature; moderate agitation was applied in a plate shaker (IKA, Germany) to displace glycerol from the surface area of protein sample spots. […] The arrays were subsequently washed once with 300 µL of buffer B and once with 300 µL of ddH2O. Residual water was removed by centrifugation; slides were stored under desiccation in the dark until analysis.
(§2) Microarray slides were scanned at a resolution of 10 µm using a GenePix 4000B microarray scanner and analyzed using GenePix Pro v6.0 software (Molecular Devices, Sunnyvale, CA). To independently visualize protein spots irrespective of peptide binding, samples were printed simultaneously with 400 nM of Cyanine-5 (Cy5) labeled bovine serum albumin (BSA). […] Following spot layout identification via Cy5 labeled BSA, the mean fluorescence intensity of rhodamine for duplicate protein spots was quantified and normalized by subtracting the corresponding mean fluorescence intensity of thioredoxin. Normalized fluorescence values were then imported into MATLAB and KDs determined as previously described.

In assay [2] the target is T2, SH2 and PTB domains (Homo sapiens, UniProt P12931).
T2 construct: thioredoxin; made in house; host or cells: BL21(DE3)pLysS E. coli
T2 sequence (P12931 whole entry, the tested form may be a part): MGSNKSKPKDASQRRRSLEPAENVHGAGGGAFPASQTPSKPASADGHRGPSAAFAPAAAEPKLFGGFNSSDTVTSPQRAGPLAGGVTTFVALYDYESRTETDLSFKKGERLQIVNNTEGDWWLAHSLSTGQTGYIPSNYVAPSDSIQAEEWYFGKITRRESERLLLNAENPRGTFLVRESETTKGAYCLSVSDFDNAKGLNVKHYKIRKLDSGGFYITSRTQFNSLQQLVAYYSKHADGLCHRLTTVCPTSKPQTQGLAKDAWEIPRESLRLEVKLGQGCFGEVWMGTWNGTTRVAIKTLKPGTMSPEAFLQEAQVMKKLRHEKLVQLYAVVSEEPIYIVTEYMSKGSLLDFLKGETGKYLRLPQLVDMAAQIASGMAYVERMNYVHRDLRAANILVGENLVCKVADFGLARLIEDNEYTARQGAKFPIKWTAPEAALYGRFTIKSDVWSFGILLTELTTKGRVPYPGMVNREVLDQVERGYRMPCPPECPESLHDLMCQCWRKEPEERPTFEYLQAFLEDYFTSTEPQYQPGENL
The settings on record: protein SRC. On the procedure: as §1, §2

In assay [3] the target is T3, SH2 and PTB domains (Homo sapiens, UniProt P43405).
T3 construct: thioredoxin; made in house; host or cells: BL21(DE3)pLysS E. coli
As to the method:
as §1, §2

The target in assay [4] is T4, SH2 and PTB domains (Homo sapiens, UniProt O00459).
T4 construct: thioredoxin; made in house; host or cells: BL21(DE3)pLysS E. coli
T4 sequence (O00459 whole entry, the tested form may be a part): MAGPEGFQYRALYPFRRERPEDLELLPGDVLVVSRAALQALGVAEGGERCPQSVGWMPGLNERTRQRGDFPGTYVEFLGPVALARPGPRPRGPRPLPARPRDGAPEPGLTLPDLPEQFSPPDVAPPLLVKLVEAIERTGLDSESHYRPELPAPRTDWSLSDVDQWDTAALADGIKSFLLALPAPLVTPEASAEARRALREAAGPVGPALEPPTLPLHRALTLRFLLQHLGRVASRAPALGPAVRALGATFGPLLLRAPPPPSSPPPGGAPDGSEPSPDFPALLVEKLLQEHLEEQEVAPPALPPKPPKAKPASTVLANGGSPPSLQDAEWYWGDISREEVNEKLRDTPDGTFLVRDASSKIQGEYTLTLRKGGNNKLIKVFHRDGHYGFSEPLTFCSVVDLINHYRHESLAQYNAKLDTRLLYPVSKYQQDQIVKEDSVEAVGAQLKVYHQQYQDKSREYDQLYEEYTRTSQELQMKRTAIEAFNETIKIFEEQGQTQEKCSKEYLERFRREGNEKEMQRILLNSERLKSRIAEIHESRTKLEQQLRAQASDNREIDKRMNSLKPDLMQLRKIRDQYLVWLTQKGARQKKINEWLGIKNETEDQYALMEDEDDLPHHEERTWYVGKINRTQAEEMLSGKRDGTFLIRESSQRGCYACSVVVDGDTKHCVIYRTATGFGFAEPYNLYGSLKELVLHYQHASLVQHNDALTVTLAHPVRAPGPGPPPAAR
The settings on record: array fabrication # 39329. On the procedure: as §1, §2

The target in assay [5] is T5, SH2 and PTB domains (Homo sapiens, UniProt O43639).
T5 construct: thioredoxin; made in house; host or cells: BL21(DE3)pLysS E. coli
T5 sequence (O43639 whole entry, the tested form may be a part): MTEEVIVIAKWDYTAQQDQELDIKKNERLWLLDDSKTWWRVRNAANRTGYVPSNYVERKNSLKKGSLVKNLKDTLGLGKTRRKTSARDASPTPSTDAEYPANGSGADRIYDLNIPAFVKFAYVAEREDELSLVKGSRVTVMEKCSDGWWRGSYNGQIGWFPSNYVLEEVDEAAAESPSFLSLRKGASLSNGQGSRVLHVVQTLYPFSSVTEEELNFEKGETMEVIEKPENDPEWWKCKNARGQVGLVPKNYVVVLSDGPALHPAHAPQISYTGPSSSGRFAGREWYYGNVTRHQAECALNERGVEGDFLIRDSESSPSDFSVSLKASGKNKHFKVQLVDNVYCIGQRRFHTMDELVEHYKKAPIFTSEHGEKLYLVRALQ
As to conditions: protein NCK2. On the procedure:
as §1, §2

In assay [6] the target is T6, SH2 and PTB domains (Homo sapiens, UniProt P07947).
T6 construct: thioredoxin; made in house; host or cells: BL21(DE3)pLysS E. coli
T6 sequence (P07947 whole entry, the tested form may be a part): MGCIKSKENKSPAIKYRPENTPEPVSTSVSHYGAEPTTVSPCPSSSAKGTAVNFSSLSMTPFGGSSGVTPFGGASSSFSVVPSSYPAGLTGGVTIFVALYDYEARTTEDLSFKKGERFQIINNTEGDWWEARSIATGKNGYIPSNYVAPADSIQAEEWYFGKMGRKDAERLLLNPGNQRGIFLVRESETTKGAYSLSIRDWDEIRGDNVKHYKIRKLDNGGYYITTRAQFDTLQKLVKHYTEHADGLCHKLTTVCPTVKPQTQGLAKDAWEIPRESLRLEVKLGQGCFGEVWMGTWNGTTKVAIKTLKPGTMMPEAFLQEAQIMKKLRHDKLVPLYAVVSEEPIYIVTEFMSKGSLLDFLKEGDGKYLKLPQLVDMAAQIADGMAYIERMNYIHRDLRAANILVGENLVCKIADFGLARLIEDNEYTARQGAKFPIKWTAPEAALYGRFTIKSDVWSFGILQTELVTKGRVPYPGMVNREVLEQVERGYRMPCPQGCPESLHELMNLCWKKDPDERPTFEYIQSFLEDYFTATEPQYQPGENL
The settings on record: protein YES1. As to the method:
as §1, §2

For assay [7], the target named is T7, SH2 and PTB domains (Homo sapiens, UniProt P51451).
T7 construct: thioredoxin; made in house; host or cells: BL21(DE3)pLysS E. coli
T7 sequence (P51451 whole entry, the tested form may be a part): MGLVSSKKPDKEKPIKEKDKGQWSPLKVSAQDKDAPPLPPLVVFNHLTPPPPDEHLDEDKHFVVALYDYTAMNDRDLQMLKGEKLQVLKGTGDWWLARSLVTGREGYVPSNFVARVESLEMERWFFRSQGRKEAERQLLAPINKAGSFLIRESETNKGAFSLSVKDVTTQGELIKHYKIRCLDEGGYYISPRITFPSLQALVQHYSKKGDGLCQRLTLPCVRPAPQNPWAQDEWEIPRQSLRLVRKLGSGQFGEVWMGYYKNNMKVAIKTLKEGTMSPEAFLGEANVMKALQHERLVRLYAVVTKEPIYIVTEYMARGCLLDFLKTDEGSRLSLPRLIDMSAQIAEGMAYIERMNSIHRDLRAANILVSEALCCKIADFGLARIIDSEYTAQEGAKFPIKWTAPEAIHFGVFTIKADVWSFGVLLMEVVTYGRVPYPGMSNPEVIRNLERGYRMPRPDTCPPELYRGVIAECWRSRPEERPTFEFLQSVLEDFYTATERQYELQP
As to conditions: protein BLK. On the procedure: as §1, §2

Assay [8] has as its target T8, SH2 and PTB domains (Homo sapiens, UniProt Q92569).
T8 construct: thioredoxin; made in house; host or cells: BL21(DE3)pLysS E. coli
As to the method: as §1, §2

For assay [9], the target named is T9, SH2 and PTB domains (Homo sapiens, UniProt Q9BRG2).
T9 construct: thioredoxin; made in house; host or cells: BL21(DE3)pLysS E. coli
T9 sequence (Q9BRG2 whole entry, the tested form may be a part): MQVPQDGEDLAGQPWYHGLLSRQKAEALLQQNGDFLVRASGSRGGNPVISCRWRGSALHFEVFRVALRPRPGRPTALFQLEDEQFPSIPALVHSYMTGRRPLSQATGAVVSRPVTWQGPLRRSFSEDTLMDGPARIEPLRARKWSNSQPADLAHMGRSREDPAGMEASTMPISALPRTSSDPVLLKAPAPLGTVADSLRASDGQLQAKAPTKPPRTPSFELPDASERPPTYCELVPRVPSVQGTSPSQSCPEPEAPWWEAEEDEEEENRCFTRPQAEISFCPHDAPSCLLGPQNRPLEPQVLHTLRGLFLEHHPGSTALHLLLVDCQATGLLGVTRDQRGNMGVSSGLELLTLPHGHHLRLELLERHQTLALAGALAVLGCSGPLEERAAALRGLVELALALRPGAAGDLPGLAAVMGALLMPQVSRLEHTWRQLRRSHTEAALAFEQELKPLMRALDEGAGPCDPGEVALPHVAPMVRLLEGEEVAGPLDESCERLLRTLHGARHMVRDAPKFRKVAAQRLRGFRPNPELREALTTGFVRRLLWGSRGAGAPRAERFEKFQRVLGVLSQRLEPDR
The settings on record: protein SH2D3A. As to the method: as §1, §2

[10] abbreviates: PM assay replicate # 39331, array fabrication # 39329.
[11] abbreviates: PM assay replicate # 39336, array fabrication # 39329.
[12] abbreviates: protein SYK-N, PM assay replicate # 39336, array fabrication # 39329.
Where [13] appears, read: protein SYK-NC, PM assay replicate # 39336, array fabrication # 39329.
Setting [14] is: PM assay replicate # 39337, array fabrication # 39329.
Where [15] appears, read: PM assay replicate # 39603, array fabrication # 39392.
Setting [16] is: protein SYK-NC, PM assay replicate # 39337, array fabrication # 39329.
The mark [17] stands for this setting: protein PIK3R3-NC, PM assay replicate # 39337, array fabrication # 39329.
The mark [18] stands for this setting: PM assay replicate # 39307, array fabrication # 39286.
[19] abbreviates: PM assay replicate # 39351, array fabrication # 39336.
[20] abbreviates: PM assay replicate # 39352, array fabrication # 39336.

Usually Kd stands for the concentration at which binding is half-saturated. Lower therefore signals higher affinity. In the case of `CC(C)C[C@H](NC(=O)[C@@H]1CCCN1)C(=O)N[C@@H](CCC(N)=O)C(=O)N[C@@H](CCCNC(=N)N)C(=O)N[C@@H](Cc1ccc(OP(=O)(O)O)cc1)C(=O)N[C@@H](CO)C(=O)N[C@@H](CCC(=O)O)C(=O)N[C@@H](CC(=O)O)C(=O)N1CCC[C@H]1C(=O)N[C@H](C(=O)N[C@H](C(=O)N1CCC[C@H]1C(=O)N[C@@H](CC(=O)O)C(=O)O)C(C)C)[C@@H](C)O` [ErbB2 pY1112] (HELM PEPTIDE1{P.L.Q.R.[O=C([C@H](Cc1ccc(OP(=O)(O)O)cc1)N[*:1])[*:2]].S.E.D.P.T.V.P.D}$$$$V2.0), the “Kd” value on SH2 and PTB domains [1] (setting [10]) is 1.72 µM; on SH2 and PTB domains [1] (setting [11]), 9.67 µM; at SH2 and PTB domains [2] (setting [10]), 183.21 µM; at SH2 and PTB domains [3] (protein SYK-N, PM assay replicate # 39331, array fabrication # 39329), 3.62 µM; on SH2 and PTB domains [3] (setting [12]) it was 14.58 µM; on SH2 and PTB domains [3] (protein SYK-NC, PM assay replicate # 39331, array fabrication # 39329), 0.89 µM. For the same molecule, the “Kd” value on SH2 and PTB domains [3] (setting [13]) was determined as 0.80 µM.
For the molecule `CC(C)C[C@H](NC(=O)[C@@H]1CCCN1C(=O)[C@H](C)NC(=O)[C@@H](NC(=O)[C@H](Cc1ccc(OP(=O)(O)O)cc1)NC(=O)CNC(=O)[C@H](CC(=O)O)NC(=O)[C@@H](NC(=O)[C@@H](N)CCC(=O)O)[C@@H](C)O)C(C)C)C(=O)N[C@H](C(=O)N[C@@H](CS)C(=O)N[C@@H](CO)C(=O)N[C@@H](CC(=O)O)C(=O)O)[C@@H](C)O` [ErbB2 pY1127], the “Kd” value was found to be 0.04 µM at SH2 and PTB domains [4] (protein PIK3R2-N, PM assay replicate # 39336); 0.15 µM on SH2 and PTB domains [4] (protein PIK3R2-N, PM assay replicate # 39337); 1.56 µM at SH2 and PTB domains [5] (setting [11]); 0.46 µM on SH2 and PTB domains [5] (setting [14]); 0.0053 µM on SH2 and PTB domains [6] (setting [11]); 0.0651 µM at SH2 and PTB domains [6] (setting [14]). Also, the “Kd” value on SH2 and PTB domains [2] (setting [11]) was found to be 0.035 µM; on SH2 and PTB domains [2] (setting [14]), 0.38 µM; at SH2 and PTB domains [2] (setting [15]), 0.25 µM; on SH2 and PTB domains [3] (protein SYK-C, PM assay replicate # 39336, array fabrication # 39329), 2.39 µM; on SH2 and PTB domains [3] (protein SYK-C, PM assay replicate # 39337, array fabrication # 39329), 1.92 µM; on SH2 and PTB domains [3] (setting [12]), 2.33 µM. The “Kd” value was 3.21 µM on SH2 and PTB domains [3] (protein SYK-N, PM assay replicate # 39337, array fabrication # 39329); 1.30 µM at SH2 and PTB domains [3] (setting [13]); 0.96 µM at SH2 and PTB domains [3] (setting [16]); 3.20 µM on SH2 and PTB domains [7] (setting [11]); 0.46 µM on SH2 and PTB domains [7] (setting [14]); 2.00 µM at SH2 and PTB domains [7] (setting [15]). Also, the “Kd” value at SH2 and PTB domains [8] (protein PIK3R3-C, PM assay replicate # 39336, array fabrication # 39329) amounted to 1.21 µM; on SH2 and PTB domains [8] (protein PIK3R3-C, PM assay replicate # 39337, array fabrication # 39329), 2.04 µM; at SH2 and PTB domains [8] (protein PIK3R3-N, PM assay replicate # 39336, array fabrication # 39329) it was 0.00698 µM; at SH2 and PTB domains [8] (protein PIK3R3-N, PM assay replicate # 39337, array fabrication # 39329), 0.0758 µM; on SH2 and PTB domains [8] (protein PIK3R3-NC, PM assay replicate # 39336, array fabrication # 39329), 0.10 µM; at SH2 and PTB domains [8] (setting [17]), 0.0151 µM. For the same molecule, the “Kd” value on SH2 and PTB domains [8] (protein PIK3R3-NC, PM assay replicate # 39603, array fabrication # 39392) is 0.05 µM; on SH2 and PTB domains [9] (setting [11]) it was 0.15 µM; at SH2 and PTB domains [9] (setting [14]), 1.15 µM.
In the case of `CCN(CC)c1ccc2c(-c3ccc(C(=O)N[C@@H](CC(N)=O)C(=O)NCC(=O)N4CCC[C@H]4C(=O)N4CCC[C@H]4C(=O)N[C@@H](CCCCN)C(=O)N[C@@H](C)C(=O)N[C@@H](CCC(=O)O)C(=O)N[C@@H](CC(=O)O)C(=O)N[C@@H](CCC(=O)O)C(=O)N[C@@H](Cc4ccc(OP(=O)(O)O)cc4)C(=O)N[C@H](C(=O)N[C@@H](CC(N)=O)C(=O)N[C@@H](CCC(=O)O)C(=O)N4CCC[C@H]4C(=O)N[C@@H](CC(C)C)C(=O)N[C@@H](Cc4ccc(O)cc4)C(=O)N[C@@H](CC(C)C)C(=O)N[C@@H](CC(=O)O)C(=O)O)C(C)C)cc3C(=O)[O-])c3ccc(=[N+](CC)CC)cc-3oc2c1` [ErbB4 1202 (18-mer)] (HELM PEPTIDE1{[CCN(CC)c1ccc2c(-c3ccc(C(=O)[*:2])cc3C(=O)[O-])c3ccc(=[N+](CC)CC)cc-3oc2c1].N.G.P.P.K.A.E.D.E.[O=C([C@H](Cc1ccc(OP(=O)(O)O)cc1)N[*:1])[*:2]].V.N.E.P.L.Y.L.D}$$$$V2.0), the “Kd” value on SH2 and PTB domains [4] (protein PIK3R2-NC, PM assay replicate # 39337) stood at 0.65 µM; on SH2 and PTB domains [5] (setting [18]), 10.06 µM; at SH2 and PTB domains [1] (setting [18]) it was 30.90 µM; at SH2 and PTB domains [6] (setting [18]), 0.35 µM; at SH2 and PTB domains [6] (setting [14]), 1.44 µM; on SH2 and PTB domains [6] (setting [19]), 1.61 µM. Besides, the dissociation constant Kd on SH2 and PTB domains [6] (setting [20]) came out at 0.42 µM; at SH2 and PTB domains [2] (setting [18]), 0.40 µM; on SH2 and PTB domains [3] (protein SYK-NC, PM assay replicate # 39307, array fabrication # 39286), 0.95 µM; at SH2 and PTB domains [3] (setting [16]), 1.42 µM; on SH2 and PTB domains [3] (protein SYK-NC, PM assay replicate # 39351, array fabrication # 39336), 0.81 µM; at SH2 and PTB domains [3] (protein SYK-NC, PM assay replicate # 39352, array fabrication # 39336), 1.15 µM. The dissociation constant (Kd) stood at 0.45 µM at SH2 and PTB domains [7] (setting [18]); 7.84 µM at SH2 and PTB domains [7] (setting [14]); 2.29 µM on SH2 and PTB domains [7] (setting [19]); 2.39 µM on SH2 and PTB domains [7] (setting [20]); 1.18 µM on SH2 and PTB domains [8] (setting [17]); 1.72 µM at SH2 and PTB domains [8] (protein PIK3R3-NC, PM assay replicate # 39352, array fabrication # 39336). In addition, the “Kd” value on SH2 and PTB domains [9] (setting [18]) was determined as 1.00 µM.
